From BindingDB's records for doi:10.7270/Q20G3HMV (Burnham Center For Chemical Genomics, 2010)

Target: Envelope glycoprotein gp160 (Human immunodeficiency virus 1, UniProt Q6QLK5)
Test: HIV Env-driven cell-cell fusion inhibition, SAR follow-up, luminescence reporter (AID 435029)

Chain of Envelope glycoprotein gp160 (Q6QLK5 whole entry, the tested form may be a part): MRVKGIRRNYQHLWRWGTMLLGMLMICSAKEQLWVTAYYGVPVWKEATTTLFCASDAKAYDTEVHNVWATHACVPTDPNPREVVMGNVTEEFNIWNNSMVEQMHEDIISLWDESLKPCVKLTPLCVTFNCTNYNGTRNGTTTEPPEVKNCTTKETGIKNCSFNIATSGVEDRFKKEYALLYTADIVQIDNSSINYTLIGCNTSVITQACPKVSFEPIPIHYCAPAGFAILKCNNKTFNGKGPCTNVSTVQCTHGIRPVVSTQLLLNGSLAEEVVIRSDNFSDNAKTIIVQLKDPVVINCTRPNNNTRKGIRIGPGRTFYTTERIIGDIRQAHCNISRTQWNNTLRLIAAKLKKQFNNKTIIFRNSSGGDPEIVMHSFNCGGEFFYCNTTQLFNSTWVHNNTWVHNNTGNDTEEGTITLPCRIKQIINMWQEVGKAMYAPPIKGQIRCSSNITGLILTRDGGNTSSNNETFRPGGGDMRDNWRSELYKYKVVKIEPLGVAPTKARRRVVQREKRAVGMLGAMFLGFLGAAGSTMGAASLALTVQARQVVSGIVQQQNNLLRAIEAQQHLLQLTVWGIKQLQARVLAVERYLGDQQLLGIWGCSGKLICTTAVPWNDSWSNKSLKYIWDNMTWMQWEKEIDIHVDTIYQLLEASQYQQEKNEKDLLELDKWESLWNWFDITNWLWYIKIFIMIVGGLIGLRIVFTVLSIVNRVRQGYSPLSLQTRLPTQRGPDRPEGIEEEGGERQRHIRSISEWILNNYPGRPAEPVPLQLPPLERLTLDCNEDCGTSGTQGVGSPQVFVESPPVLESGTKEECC

Compound	IC50
COc1cc(/C=N/NS(=O)(=O)c2ccc3ccccc3c2)ccc1OCc1ccc(C(=O)O)cc1 [MLS-0298745.0001]	31 µM
Cc1c2c(=O)n(-c3nc4ccccc4s3)[nH]c2cc(=O)n1Cc1ccccc1 [MLS000762993]	6.58 µM
Cc1ccc(S(=O)(=O)Oc2ccc(/C=C3/C(=N)N4C(=NC3=O)SN=C4S(C)(=O)=O)cc2)cc1 [4-methylbenzenesulfonic acid [4-[(Z)-(5-imino-3-methylsulfonyl-7-oxo-[1,2,4]thiadiazolo[4,5-a]pyrimidin-6-ylidene)methyl]phenyl] ester]	8 µM
N#C/C(=C\C1C=CC(=O)C([N+](=O)[O-])=C1)c1nc2ccccc2s1 (centres undefined)	4.65 µM
CCC(C)(C)C1CCc2c(sc(NC(=O)c3ccccc3C(=O)O)c2C#N)C1 (centres undefined) [2-[[3-cyano-6-(2-methylbutan-2-yl)-4,5,6,7-tetrahydro-1-benzothiophen-2-yl]carbamoyl]benzoic acid]	7.3 µM
O=[N+]([O-])c1cc([N+](=O)[O-])c2oc(-c3ccccc3)c(Br)c2c1O [3-bromanyl-5,7-dinitro-2-phenyl-1-benzofuran-4-ol]	2.5 µM
COc1cc(CN=Nc2ccc(Cl)c(C(=O)O)c2)ccc1OC(=O)c1ccc(F)cc1 [2-chloro-5-[2-[[4-[(4-fluorophenyl)-oxomethoxy]-3-methoxyphenyl]methylidene]hydrazinyl]benzoic acid]	30 µM
COC(=O)c1sc(-c2ccc(C(C)(C)C)cc2)cc1NC(=O)c1ccccc1C(=O)O [SMR000456098]	1.5 µM
O=C(O)c1ccccc1C(=O)N(Cc1cccc(Oc2ccc(Cl)cc2)c1)[C@H]1CCCc2ccccc21 [2-[[[3-(4-chlorophenoxy)phenyl]methyl-[(1S)-1,2,3,4-tetrahydronaphthalen-1-yl]amino]-oxomethyl]benzoic acid]	4.1 µM
CC1(C)CC(=O)C2=C(C1)c1c(ccc3ccccc13)NC2c1cc([N+](=O)[O-])cc([N+](=O)[O-])c1O (centres undefined) [MLS000716265]	2.4 µM
COc1ccccc1NS(=O)(=O)c1cccc(-n2c(O)c(C=Nc3ccccc3C(=O)O)c3ccccc3c2=O)c1 [MLS000776209]	2.3 µM
CS(=O)(=O)C1=NSC2=NC(=O)/C(=C\c3ccc(OS(=O)(=O)c4ccccc4)cc3)C(=N)N21	12.7 µM
COc1ccc(OC)c(N2C(=O)C(=Cc3ccco3)C(=O)NC2=S)c1 [MLS001197216]	15 µM
COc1cc(/C=C2\SC(=O)N(c3ccccc3Cl)C2=O)cc([N+](=O)[O-])c1O	7.5 µM
CS(=O)(=O)C1=NSC2=NC(=O)/C(=C\c3cccn3-c3ccc(Cl)cc3)C(=N)N21	8.8 µM
O=C1Nc2ccc([N+](=O)[O-])cc2C1=NNc1ccccc1C(=O)O [2-[2-(5-nitro-2-oxidanylidene-indol-3-yl)hydrazinyl]benzoic acid]	> 100 µM
O=c1/c(=C/c2cc([N+](=O)[O-])cc([N+](=O)[O-])c2O)sc2nc3ccccc3n12 [2-[(2-hydroxy-3,5-dinitrophenyl)methylidene]-1-thiazolo[3,2-a]benzimidazolone]	8.6 µM
CC(C)S(=O)(=O)C1=NSC2=NC(=O)/C(=C\c3ccc(-c4cccc(C(=O)O)c4)o3)C(=N)N21 [3-[5-[(Z)-(5-imino-7-oxo-3-propan-2-ylsulfonyl-[1,2,4]thiadiazolo[4,5-a]pyrimidin-6-ylidene)methyl]furan-2-yl]benzoic acid]	68 µM
N#C/C(=C\c1ccc(OCc2ccc(Cl)cc2)cc1)C(=O)Nc1cccc(C(=O)O)c1 [MLS-0334991.0001]	> 100 µM
CC(C)NC(=O)c1sc(=S)n2c1[nH]c(=O)c1ccc(C(=O)NCCc3ccc(Cl)cc3)cc12 [N8-[2-(4-chlorophenyl)ethyl]-5-oxidanylidene-N3-propan-2-yl-1-sulfanylidene-4H-[1,3]thiazolo[3,4-a]quinazoline-3,8-dicarboxamide]	11.1 µM

Compound	IC50
Cc1cc(C)cc(-n2cccc2/C=C2/C(=N)N3C(=NC2=O)SN=C3S(C)(=O)=O)c1 [(6Z)-5-azanylidene-6-[[1-(3,5-dimethylphenyl)pyrrol-2-yl]methylidene]-3-methylsulfonyl-[1,2,4]thiadiazolo[4,5-a]pyrimidin-7-one]	4.7 µM
CCOC(=O)C1=C(C)N=c2sc(=Cc3ccc(OCC(=O)O)cc3)c(=O)n2C1c1ccc(OC(C)C)cc1 (centres undefined) [2-[4-[[6-ethoxycarbonyl-7-methyl-3-oxo-5-(4-propan-2-yloxyphenyl)-5H-[1,3]thiazolo[3,2-a]pyrimidin-2-ylidene]methyl]phenoxy]acetic acid]	4.45 µM
O=C1NC(=S)N(c2ccc(F)cc2)C(=O)C1=Cc1ccco1 [(5E)-1-(4-fluorophenyl)-5-(2-furanylmethylidene)-2-sulfanylidene-1,3-diazinane-4,6-dione]	20 µM
O=C(O)c1cc(N=NCc2ccc(-c3ccccc3)cc2)ccc1Cl [MLS-0319671.0001]	10 µM
O=C(O)CCCN1C(=O)/C(=C/c2ccc(-c3nc4ccccc4s3)o2)SC1=S [4-[(5Z)-5-[[5-(1,3-benzothiazol-2-yl)furan-2-yl]methylidene]-4-oxo-2-sulfanylidene-1,3-thiazolidin-3-yl]butanoic acid]	1 µM
CSc1nnc(-c2ccccc2N=Cc2c(C)[nH]n(-c3ccc4ccccc4c3)c2=O)c(=O)[nH]1 [MLS000540062]	16.5 µM
COc1cc(CN=Nc2ccc(Cl)c(C(=O)O)c2)ccc1OC(=O)c1ccccc1F [SMR000589905]	68 µM
Cc1ccc(-n2cccc2/C=C2/C(=N)N3C(=NC2=O)SN=C3S(C)(=O)=O)cc1Cl [MLS000583163]	4.6 µM
CCOC(=O)c1sc(N2C(=O)C(=O)C(C(=O)c3ccc(C)o3)C2c2cccc([N+](=O)[O-])c2)nc1C (centres undefined) [ethyl 4-methyl-2-[3-(5-methylfuran-2-yl)carbonyl-2-(3-nitrophenyl)-4-oxidanyl-5-oxidanylidene-2H-pyrrol-1-yl]-1,3-thiazole-5-carboxylate]	5.1 µM
CCOc1cc(/C=C2\SC(=O)N(CC(=O)Nc3ccccc3F)C2=O)cc([N+](=O)[O-])c1O	8.3 µM
O=C1NC(=S)N(c2ccc(F)cc2)C(=O)C1=Cc1ccoc1 [SMR000270574]	11.3 µM
CC(C)(C)c1cc(-c2cs/c(=N\c3ccccc3)n2Cc2ccc(C(=O)O)cc2)cc(C(C)(C)C)c1O [4-[[4-(3,5-ditert-butyl-4-oxidanyl-phenyl)-2-phenylazanyl-1,3-thiazol-3-ium-3-yl]methyl]benzoic acid;bromide]	3.5 µM
CCC(Sc1nc2ccsc2c(=O)n1Cc1ccc(C(=O)O)cc1)C(=O)Nc1ccc(C)c(Cl)c1 (centres undefined)	13.2 µM
Cc1c(Cl)cccc1NS(=O)(=O)c1ccc2c(c1)C1C=CCC1C(c1ccc(C(=O)O)cc1)N2 (centres undefined)	5.4 µM
Cc1ccc(-n2c(O)c(C=Nc3ccccc3-c3n[nH]c(=S)[nH]c3=O)c3ccccc3c2=O)c(C)c1 [SMR000370443]	9.8 µM
COc1ccc(C(=O)Oc2ccc(CN=Nc3ccc(Cl)c(C(=O)O)c3)cc2OC)cc1 [SMR000589907]	13 µM
CCS(=O)(=O)C1=NSC2=NC(=O)/C(=C\c3ccc(OS(=O)(=O)c4ccccc4)cc3)C(=N)N21 [MLS-0362442.0001]	8.4 µM
O=C1NC(=S)N(C2CCCCC2)C(=O)C1=CNNC(=O)c1ccccc1O [N'-[(E)-(1-cyclohexyl-4,6-dioxo-2-sulfanylidene-1,3-diazinan-5-ylidene)methyl]-2-hydroxybenzohydrazide]	11.5 µM
CC(C)S(=O)(=O)C1=NSC2=NC(=O)/C(=C\c3ccc(-c4ccccc4)o3)C(=N)N21 [(6Z)-5-imino-6-[(5-phenyl-2-furanyl)methylidene]-3-propan-2-ylsulfonyl-[1,2,4]thiadiazolo[4,5-a]pyrimidin-7-one]	3.2 µM
